Read-outs that look alike come from different tables or passages of the source.
What was measured:
human fibroblasts = conditions: cited from earlier work
[1] = system: Methicillin-resistant Staphylococcus aureus—MRSA (Clinical isolate); experiment: Antimicrobial challenge test (time-kill) in 95% TSB, concentrated media and silver; type: cell-based; conditions: throughout the duration of the testing (3 and 6 hours), 100% oxygen headspace, no silver
Procedure: In the first sample, 10 ml of 95% tryptic soy broth (TSB) was inoculated with approximately 10^5 CFU of Methicillin-resistant Staphylococcus aureus—MRSA (Clinical isolate). […] Each test sample was then incubated at 37° C.; the level of surviving organisms was tested after 3 hours and 6 hours for each.
The challenge organism (MRSA Clinical isolate) was prepared by culturing in Soybean-Casein digest broth (TSB) at 35° C. for 18 to 24 hrs to an approximate concentration of 1.8×10^9 CFU per ml. • 2. For the challenge tests: 0.01 ml of the stock culture was added into a 50 ml screw top test tube and then diluted to 10 ml with 95% TSB broth to a final concentration of 1.8×10^6 CFU/ml. • 3. […] Silver Challenge test: To a test tube prepared as described from step 2; 100 μl of 30% wt/wt AgNO3 was added and vortexed to mix for a final concentration of 0.3% AgNO3. • b. Silver+O2 challenge test: To a test tube prepared as described from step 2; 100 μl of 30% wt/wt AgNO3 solution was added and vortexed to mix for a final concentration of 0.3% AgNO3. […] The samples were then incubated at 37° C. for both 3 and 6 hours. • d. At the 3 and 6 hour time point the samples were plated at different dilutions (10^−1, 10^−3, and 10^−5) to enumerate the surviving colonies. • i. The 3 hour samples was re-purged with 02 gas and returned to the incubating oven for an additional 3 hours. • ii. […]

[2] = system: Pseudomonas aeruginosa (ATCC 9027); type: cell-based; conditions: 37° C., 0.03 ppm silver (from silver nitrate), 5% TSB, based on time zero plate count
Procedure: Each test sample was then incubated at 37° C.; the level of surviving organisms was tested after 3 hours and 6 hours for each.
The challenge organism (Pseudomonas aeruginosa ATCC 9027) was prepared by culturing in Soybean-Casein digest broth (TSB) at 35° C. for 18 to 24 hrs to an approximate concentration of 1.8×10^8 CFU per ml. • 2. For the challenge tests: 0.01 ml of the stock culture was added into a 50 ml screw top test tube and then diluted to 10 ml with 5% TSB broth to a final concentration of 1.8×10^5 CFU/ml. • 3. […] Silver Challenge test: To a test tube prepared as described from step 2; 100 μl of 3 ppm AgNO3 was added and vortexed to mix for a final concentration of 0.03 ppm AgNO3. • b. Silver+O2 challenge test: To a test tube prepared as described from step 2; 100 μl of 3 ppm Ag+ (from AgNO3) solution was added and vortexed to mix for a final concentration of 0.03 ppm AgNO3. […] The samples were then incubated at 37° C. for both 3 and 6 hours. • d. At the 3 and 6 hour time point the samples were plated at different dilutions (10^−1, 10^−3, and 10^−5) to enumerate the surviving colonies. • i. The 3 hour samples were re-purged with 02 gas and returned to the incubating oven for an additional 3 hours. • ii. The media used for plating was Trypticase soy agar (TSA). • e. The plates were incubated for 2 to 3 days before counting. • f. […]

For `[Ag+]` [Ionic silver], the “concentration cytotoxic to human fibroblasts” value (human fibroblasts) is listed as 1 parts per million.

In the case of `O=O` [Sample 4, oxygen gas], the “change in the amount of colony forming units” value [1] is reported as “increase”.

In the case of silver nitrate [Sample 1], the “log reduction in the number of CFU” value ([2]; after 3 hours) is reported as 2 log and the “log reduction in the number of CFU” value ([2]; after 6 hours) is reported as 3 log.

From US20170136140A1, “Antimicrobial Compositions Utilizing Silver and Oxygen, Process for Making, and Method of Using the Same” (Avent, Inc., priority 2014, published 2017)
